From PMC11939955, “Enhancing Antimicrobial Peptides from Frog Skin: A Rational Approach” (Biomolecules, 2025)
Where no end group is shown, it is not given here.

How the values were obtained:
[1] = tested on: Acinetobacter baumannii (ATCC 13304); assay type: cell-based; conditions: for Reduction in MIC against A. baumannii compared to hylin-Pul3: versus parent peptide hylin-Pul3
Procedure: (§1) Hylin-Pul3 and six derivatives (dHP3-31, dHP3-50, dHP3-50.137, dHP3-50.190, dHP3-84, and dHP3-84.39) were tested against two Gram-positive bacteria, Staphylococcus aureus (ATCC 25923) and Streptococcus mutans (ATCC 25175), as well as three Gram-negative bacteria: Escherichia coli (ATCC 25922), Klebsiella pneumoniae (ATCC 13883), and Acinetobacter baumannii (ATCC 13304). The minimal inhibitory concentration (MIC) was determined using the microbroth dilution.
(§2) The peptides were serially diluted in concentrations ranging 128 to 0.25 μM, with gentamicin serving as a positive control, which was serially diluted to concentrations of 20 to 0.04 μM. Bacterial cultures were prepared in Mueller–Hinton (MH) medium to achieve a final inoculum concentration of 5 × 10^5 CFU/mL. […] All tests were performed in duplicate and repeated across three independent experiments.

[2] = tested on: Escherichia coli (ATCC 25922); assay type: cell-based; conditions: for Reduction in MIC against E. coli compared to hylin-Pul3: versus parent peptide hylin-Pul3
Procedure: as §1, §2

[3] = tested on: Klebsiella pneumoniae (ATCC 13883); assay type: cell-based
Procedure: as §1, §2

[4] = tested on: Staphylococcus aureus (ATCC 25923); assay type: cell-based
Procedure: as §1, §2

[5] = tested on: Streptococcus mutans (ATCC 25175); assay type: cell-based
Procedure: as §1, §2

[6] = tested on: Varicellovirus suidalpha1; assay type: cell-based; conditions: hylin-Pul3 at 20 μg/mL (10.8 μM), dHP3-84 at 75 μg/mL (34.5 μM); Vero monolayers, 90 min adsorption then 72 h at 37 °C, plaque titer, duplicate
Procedure: Antiviral activity assays were performed following a previously described protocol with slight modifications. The efficacy of the peptide compounds was assessed at different stages of the viral lifecycle, including adsorption, penetration, and intracellular replication. The hylin-Pul3 and dHP3-84 peptides were tested at non-cytotoxic concentrations of 20 μg/mL (10.8 μM) and 75 μg/mL (34.5 μM), respectively. Vero cell monolayers (African green monkey kidney cells) were cultured in 24-well plates and exposed to the peptide solutions along with serial 10-fold dilutions of Varicellovirus suidalpha1, formerly known as Herpes suis virus type 1 (HSV-1). The assays were performed in duplicate. […] The viral plaques that formed on the Vero cells were stained (1% crystal violet) and the viral titers were determined. The percentage viral inhibition was calculated by comparing the reduction in viral titer between the treatment and control groups. This was determined using the following formula: (2) % viral inhibition=100−A/B×100 where “A” represents the viral titer expressed in PFU/mL (Plaque-Forming Units per milliliter) obtained in the treated cultures and “B” is the viral titer expressed in PFU/mL obtained in the untreated cultures.

Vero cells = assay type: cell-based, African green monkey; conditions: for CC50, concentration inducing 50% cell death in Vero cells / Cytotoxicity in Vero cells, CC50: 48 h
Procedure: The cytotoxicity of hylin-Pul3 and dHP3-84 peptides was evaluated on Vero cells procured from the Asociación Banco Argentino de Células (ABAC; Buenos Aires, Argentina). Cell viability was determined using the Neutral Red Uptake test (NRU) test, following a previously described methodology. The Vero cells were cultured in Minimum Essential Medium (MEM) supplemented with 8% fetal calf serum (FCS), 50 μg/mL gentamicin, and 2 mM glutamine. The cells were monitored by observing their morphological changes after 24 and 48 h of incubation.
For the NRU assay, the cells were seeded in 96-well culture plates at a density of 1 × 10^5 cells per well. The cell monolayers were treated with increasing concentrations of the peptide solutions (25–500 μg/mL) for 48 h in triplicate. The monolayers incubated with MM only were used as the control. Following exposure, the culture medium was replaced with 150 μL of a […] neutral red solution in MEM. After incubation at 37 °C for 3 h, the dye medium was discarded and the wells were gently washed with PBS. The intracellular dye was extracted using a mixture of acetic acid, ethanol, and water (1:50:49). After gentle agitation for 10 min, the absorbance values were measured at 540 nm.
The relative cell viability was calculated as a percentage of the NRU observed in the untreated control groups. The cell survival fraction was determined using the following formula: (4) Survival Fraction % (SF%)=D.O. treated cells/D.O. control cells×100

E. coli (ATCC 25922) = test: Synergistic checkerboard assay; assay type: cell-based, Escherichia coli
Procedure: Briefly, working solutions of the peptides were prepared and serially diluted by half across the rows and columns of a microplate, ensuring that each well contained a unique combination of peptide concentrations. The starting concentrations corresponded to the respective MIC values of each peptide, followed by two-fold serial dilutions.
Each well was filled with 50 µL of the peptide solution (individual or combined) and 50 µL of a bacterial suspension (1 × 10^6 CFU/mL), resulting in a final bacterial concentration of 5 × 10^5 CFU/mL. The individual peptide solutions served as positive controls, while the MH medium was employed as a negative control. The microplates were incubated at 37 °C overnight. The test was performed in three independent experiments. The fractional inhibitory concentrations index (ΣFIC) was calculated using the following equation: (1) ∑FIC =MIC(A) in combination/MIC(A) alone+MIC(B) in combination /MIC(B) alone
The FIC index (ΣFIC) was interpreted as follows: ΣFIC ≤ 0.5 indicated synergy; 0.5 < ΣFIC ≤ 4 indicated no effect; and 4 < ΣFIC indicated antagonism.

[7] = DPPH radical-scavenging activity; conditions: peptides 0.1, 0.05, 0.025 mg/mL, 30 min dark 25 °C, absorbance 515 nm, triplicate
Procedure: A stock solution of 60 µM 1,1-diphenyl-2-picrylhydrazyl (DPPH) was prepared in ethanol, with its absorbance adjusted to 0.7 at 515 nm immediately before the assay using a Shimadzu 1240 UV–visible spectrophotometer (Kyoto, Japan). The peptides were dissolved in PBS, and 20 µL aliquots of each peptide solution were incubated with 180 µL of the ethanolic DPPH solution in triplicate, at final concentrations of 0.1, 0.05, and 0.025 mg/mL. For the negative control, 20 µL of PBS was mixed with 180 µL of the DPPH solution, while 20 µL of Trolox (6-hydroxy-2,5,7,8-tetramethylchroman-2-carboxylic acid) served as the positive control and standard. The mixtures were incubated in the dark at 25 °C for 30 min, after which, the absorbance was measured at 515 nm. The reduction in absorbance, indicative of DPPH-scavenging activity, was compared to a standard curve. The results were expressed as milligrams of Trolox equivalents per milligram of peptide (mg Trolox equivalents/mg of peptide).

ABTS assay = conditions: peptides 0.05, 0.025, 0.0125 mg/mL, 1 h dark, absorbance 734 nm, triplicate
Procedure: The 2,2-azinobis-3-ethylbenzothiazoline-6-sulfonic acid (ABTS^+) free radical-scavenging activity was determined following the method in [38]. The ABTS⁺ radical cation was generated by diluting a 245 mM ammonium persulfate (APS) solution at a ratio of 1:100 with a 7 mM ABTS solution, followed by overnight incubation in the dark at room temperature. The ABTS^+ solution was then diluted with water to obtain an absorbance of 0.70 at 734 nm immediately before the assay using a Shimadzu 1240 UV-visible spectrophotometer (Kyoto, Japan). The peptides were dissolved in PBS, and 10 µL aliquots of each peptide solution were incubated with 190 µL of the ABTS^+ solution in triplicate, at final concentrations of 0.05, 0.025, and 0.0125 mg/mL. After a 1 h incubation in the dark, the absorbance was measured at 734 nm. The radical-scavenging activity was quantified against a standard curve, with the results expressed as milligrams of Trolox equivalents per milligram of peptide.

RLGALIPAIRGAIKKLIKK-NH2 [dHP3-50]
Antimicrobial Activity (MIC) A. baumannii ATCC 13304 [1]: 6.6 ± 2 µM | Reduction in MIC against A. baumannii compared to hylin-Pul3 [1]: 4 fold | Antimicrobial Activity (MIC) E. coli ATCC 25922 [2]: 8.0 ± 0.0 µM | Reduction in MIC against E. coli compared to hylin-Pul3 [2]: 4 fold | Antimicrobial Activity (MIC) K. pneumoniae ATCC 13883 [3]: 64.0 ± 0.0 µM | Antimicrobial Activity (MIC) S. aureus ATCC 25923 [4]: 18.6 ± 6.5 µM | Antimicrobial Activity (MIC) S. mutans ATCC 25175 [5]: 8.0 ± 0.0 µM

RRIALIPAIRGAIKKLIKK-NH2 [dHP3-50.190]
Antimicrobial Activity (MIC) A. baumannii ATCC 13304 [1]: 16.0 ± 0.0 µM | Antimicrobial Activity (MIC) E. coli ATCC 25922 [2]: 9.3 ± 3.2 µM | Antimicrobial Activity (MIC) K. pneumoniae ATCC 13883 [3]: >64 µM | Antimicrobial Activity (MIC) S. aureus ATCC 25923 [4]: 29.3 ± 6.5 µM | Antimicrobial Activity (MIC) S. mutans ATCC 25175 [5]: 32.0 ± 0.0 µM

FLGALIPAIAGAIGGLIRK-NH2 [hylin-Pul3, reference compound]
Antimicrobial Activity (MIC) A. baumannii ATCC 13304 [1]: 32.0 ± 0.0 µM | Antimicrobial Activity (MIC) E. coli ATCC 25922 [2]: 32.0 ± 0.0 µM | Antimicrobial Activity (MIC) K. pneumoniae ATCC 13883 [3]: >64 µM | Antimicrobial Activity (MIC) S. aureus ATCC 25923 [4]: 7.3 ± 1.6 µM | Antimicrobial Activity (MIC) S. mutans ATCC 25175 [5]: 4.6 ± 1.6 µM | Antiviral Activity, viral inhibition [6]: 0% | Cytotoxicity in Vero cells, MNCC (Vero cells): 13.5 µM | CC50, concentration inducing 50% cell death in Vero cells (Vero cells): 80 µg/mL | Cytotoxicity in Vero cells, CC50 (Vero cells): 43.2 µM

RLGKLIPRIAKAIGRLIRK-OH [dHP3-84]
Antimicrobial Activity (MIC) A. baumannii ATCC 13304 [1]: 8.0 ± 0.0 µM | Reduction in MIC against A. baumannii compared to hylin-Pul3 [1]: 4 fold | Antimicrobial Activity (MIC) E. coli ATCC 25922 [2]: 8.0 ± 0.0 µM | Reduction in MIC against E. coli compared to hylin-Pul3 [2]: 4 fold | Antimicrobial Activity (MIC) K. pneumoniae ATCC 13883 [3]: 18.6 ± 6.5 µM | Lower MIC than the original peptide against K. pneumoniae ([3]; versus hylin-Pul3): 4 fold | Antimicrobial Activity (MIC) S. aureus ATCC 25923 [4]: 9.3 ± 3.3 µM | Antimicrobial Activity (MIC) S. mutans ATCC 25175 [5]: 7.3 ± 1.6 µM | Synergistic Activity, FIC Index (ΣFIC) (E. coli (ATCC 25922); combination of dHP3-84 and dHP3-50.137, E. coli ATCC 25922, 5 × 10^5 CFU/mL, 37 °C overnight, three independent experiments, ΣFIC ≤ 0.5 = synergy): 0.5 | Improvement of combined activity compared to each peptide individually (E. coli (ATCC 25922); dHP3-84 + dHP3-50.137, E. coli): 2 fold | Antiviral Activity, viral inhibition [6]: 70% | Cytotoxicity in Vero cells, MNCC (Vero cells): 57.6 µM | CC50, concentration inducing 50% cell death in Vero cells (Vero cells): 230 µg/mL | Cytotoxicity in Vero cells, CC50 (Vero cells): 105.9 µM

LWPAIRGAIKKLIKK-NH2 [dHP3-31]
Antimicrobial Activity (MIC) A. baumannii ATCC 13304 [1]: 9.3 ± 3.2 µM | Reduction in MIC against A. baumannii compared to hylin-Pul3 [1]: 4 fold | Antimicrobial Activity (MIC) E. coli ATCC 25922 [2]: 16.0 ± 0.0 µM | Reduction in MIC against E. coli compared to hylin-Pul3 [2]: 4 fold | Antimicrobial Activity (MIC) K. pneumoniae ATCC 13883 [3]: >64 µM | Antimicrobial Activity (MIC) S. aureus ATCC 25923 [4]: 37.3 ± 13.1 µM | Antimicrobial Activity (MIC) S. mutans ATCC 25175 [5]: 18.7 ± 6.5 µM | Antioxidant activity DPPH [7]: did not reveal significant activity | Antioxidant activity ABTS (ABTS assay): 0.14 mg Trolox/mg
